The test concerns stress-induced gastric ulcer. The test is described as follows: Anti-ulcer activity: water-immersion restraint stress-induced gastric ulcer in rats, oral (procedure of Takagi et al.). Type of test: in vivo, Male Sprague-Dawley rats. Particulars: for ED50: read-out: ED50 (dose of test compound which gives 50% inhibition). As to the method: Some polyisoprene compounds according to the invention were tested to evaluate their anti-ulcer activity in comparison with Teprenone and Gefarnate as controls, in accordance with the procedure proposed by Takagi et al ["Japan. J. Pharmacol.", Vol. 18, page 9 (1968)].
Male Sprague-Dawley rats were used, each having the body weight of 183.9 to 234.5 g. The animals were deprived of food for 24 hours prior to the test. They were immobilized in a restraint cage and immersed for 7 hours to the height of the xiphoid process in a water-bath kept at 23°±1° C. After inflation with 10 ml of 1% formalin, the isolated stomach was opened along the greater curvature. The ulcer index was determined as the sum of length (mm) of each erosion per rat. The compounds were administered orally 30 minutes before the restraint.
Results are shown in following Table 1 in terms of percent inhibition of anti-ulcer activity. In the Table, ED50 represents the dose of test compound which gives 50% inhibition.

The mark [1] stands for this setting: oral, 30 minutes before restraint, rat, read-out: Inhibition (percent inhibition, ulcer index).
The mark [2] stands for this setting: oral, 30 minutes before restraint, rat.
Where [3] appears, read: Rattus norvegicus, po, read-out: Inhibition (percent inhibition, ulcer index).

Experimental findings from US5177102A, “Polyisoprene compounds and salts thereof” (Sanwa Kagaku Kenkyusho Co., Ltd., priority 1990, dated 1993) are described below.

Read-outs that look alike come from different tables or passages of the source.

`CC(=CCSCCN)CCCC(C)CCCC(C)CCCC(C)C` (stereo not drawn) [Example 2, 2-(3,7,11,15-Tetramethyl-2-hexadecaen-1-ylthio)ethylamine]: under setting [1], the inhibition in vivo at 12.5 mg/kg came out at 9%, the inhibition in vivo at 25 mg/kg is 45% and the inhibition in vivo at 50 mg/kg is 69%. In addition, the ED50 under setting [2] came out at 30.8 mg/kg.

With `CC(C)=CCCC(C)=CCCC(C)=CCCC(C)=CCN(CC=C(C)CCC=C(C)CCC=C(C)CCC=C(C)C)CC12CCCN1CCC2` [Example 12, 5-{[Bis(3,7,11,15-tetramethyl-2,6,10,14-hexadecatetraen-1-yl)amino]methyl}-1-azabicyclo[3.3.0]octane], under setting [1], the inhibition in vivo at 12.5 mg/kg stood at 21.5% and the inhibition in vivo at 25 mg/kg was determined as 50%. The median effective dose (ED50) under setting [2] was at least 25 mg/kg.

Turning to `CC(C)=CCCC(C)=CCSCCN` [Example 3, 2-(3,7-Dimethyl-2,6-octadien-1-ylthio)ethylamine], the inhibition in vivo at 50 mg/kg under setting [1] was 13.3%. The ED50 under setting [2] was over 50 mg/kg.

As to `CNC(=C[N+](=O)[O-])NCCSCC=C(C)CCC=C(C)CCC=C(C)CCC=C(C)C` [Example 7, 2-Methylamino-1-nitro-2-[2-(3,7,11,15-tetramethyl-2,6,10,14-hexadecatetraen-1-ylthio)ethylamino]ethylene], under setting [1], the inhibition in vivo at 12.5 mg/kg was -7%, the inhibition in vivo at 25 mg/kg worked out at 23.8% and the inhibition in vivo at 50 mg/kg stood at 67.8%. The 50% effective dose (ED50) under setting [2] came to 37.4 mg/kg.

As to `CC(=O)CCC=C(C)CCC=C(C)CCC=C(C)CCC=C(C)C` [Teprenone, reference compound], under setting [1], the inhibition in vivo at 25 mg/kg turned out to be 0% and the inhibition in vivo at 50 mg/kg stood at 9.4%. Further, the inhibition in vivo at 100 mg/kg (100 mg/kg, oral, 30 minutes before restraint, rat, read-out: Inhibition (percent inhibition, ulcer index)) was found to be 48.3%. Further, the 50% effective dose (ED50) under setting [2] was over 100 mg/kg.

On to `CC(C)=CCCC(C)=CCCC(C)=CCCC(C)=CCNCC12CCCN1CCC2` [Example 9, 5-{[(3,7,11,15-Tetramethyl-2,6,10,14-hexadecatetraen-1-yl)amino]methyl}-1-azabicyclo[3.3.0]octane], for which, under setting [1], the inhibition in vivo at 12.5 mg/kg amounted to 38.4%, the inhibition in vivo at 25 mg/kg is 67.9% and the inhibition in vivo at 50 mg/kg was 84.9%. Besides, the ED50 under setting [2] was 16.6 mg/kg.

With `CC(C)=CCCC(C)=CCCC(C)=CCCC(C)=CCCC(C)=CCCC(C)=CCCC(C)=CCCC(C)=CCCC(C)=CCSCCN` [Example 1, 2-(3,7,11,15,19,23,27,31,35-Nonamethyl-2,6,10,14,18,22,26,30,34-hexatriacontanonaen-1-ylthio)ethylamine], under setting [1], the inhibition in vivo at 12.5 mg/kg was -3.1%, the inhibition in vivo at 25 mg/kg was determined as 39.7% and the inhibition in vivo at 50 mg/kg was 55.1%. In addition, under setting [2], the 50% effective dose (ED50) turned out to be 39.7 mg/kg.

In the case of `CC(C)=CCCC(C)=CCCC(C)=CCCC(C)=CCSCCNC(=O)CC12CCCN1CCC2` [Example 11, N-[2-(3,7,11,15-Tetramethyl-2,6,10,14-hexadecatetraen-1-ylthio)ethyl]-(1-azabicyclo[3.3.0]octan-5-yl)acetamide], under setting [1], the inhibition in vivo at 12.5 mg/kg came to 9.4%, the inhibition in vivo at 25 mg/kg worked out at 51% and the inhibition in vivo at 50 mg/kg was 68.5%. For the same compound, the ED50 under setting [2] is 26 mg/kg.

For `CC(C)=CCCC(C)=CCCC(C)=CCCC(C)=CCCC(C)=CCCC(C)=CCCC(C)=CCCC(C)=CCCC(C)=CCCC(C)=CCNCC12CCCN1CCC2` [Example 8, 5-{[(3,7,11,15,19,23,27,31,35,39-Decamethyl-2,6,10,14,18,22,26,30,34,38-tetracontadecaen-1-yl)amino]methyl}-1-azabicyclo[3.3.0]octane], the inhibition in vivo at 50 mg/kg under setting [1] came out at 10.3%. Moreover, the ED50 under setting [2] was over 50 mg/kg.

Consider `CC(C)=CCC/C(C)=C/CC/C(C)=C/CCC(=O)OC/C=C(\C)CCC=C(C)C` [Gefarnate, reference compound], for which the 50% effective dose (ED50) (Rattus norvegicus, po) is 387 mg/kg. For the same compound, under setting [3], the inhibition in vivo at 100 mg/kg turned out to be 24.6%, the inhibition in vivo at 200 mg/kg is 19.2% and the inhibition in vivo at 400 mg/kg was found to be 51.5%.

In the case of `CC(C)=CCCC(C)=CCCC(C)=CCCC(C)=CCCC(C)=CCCC(C)=CCCC(C)=CCCC(C)=CCCC(C)=CCCC(C)=CCSCCNC(=O)CC12CCCN1CCC2` [Example 10, N-[2-(3,7,11,15,19,23,27,31,35,39-Decamethyl-2,6,10,14,18,22,26,30,34,38-tetracontadecaen-1-ylthio)ethyl]-(1-azabicyclo[3.3.0]octan-5-yl)acetamide], under setting [1], the inhibition in vivo at 12.5 mg/kg came to 27.3% and the inhibition in vivo at 25 mg/kg worked out at 33.9%. For the same compound, the ED50 under setting [2] was over 50 mg/kg.

In the case of `CC(C)=CCCC(C)=CCCC(C)=CCCC(C)=CCSCCN` [Example 5, 2-(3,7,11,15-Tetramethyl-2,6,10,14-hexadecatetraen-1-ylthio)ethylamine], under setting [1], the inhibition in vivo at 12.5 mg/kg is -2.8%, the inhibition in vivo at 25 mg/kg amounted to 57.4% and the inhibition in vivo at 50 mg/kg came to 88%. In addition, the 50% effective dose (ED50) under setting [2] is 21.1 mg/kg.

Take `CC(C)=CCCC(C)=CCCC(C)=CCCC(C)=CCCC(C)=CCCC(C)=CCCC(C)=CCCC(C)=CCCC(C)=CCCC(C)=CCSCCN` [Example 4, 2-(3,7,11,15,19,23,27,31,35,39-Decamethyl-2,6,10,14,18,22,26,30,34,38-tetracontadecaen-1-ylthio)ethylamine]: under setting [1], the inhibition in vivo at 12.5 mg/kg amounted to 11.1%, the inhibition in vivo at 25 mg/kg worked out at 24.2% and the inhibition in vivo at 50 mg/kg came out at 44.4%. Moreover, under setting [2], the 50% effective dose (ED50) was over 50 mg/kg.

Take `CC(C)=CCCC(C)=CCCC(C)=CCSCCN` [Example 6, 2-(3,7,11-Trimethyl-2,6,10-dodecatrien-1-ylthio)ethylamine]: the inhibition in vivo at 50 mg/kg under setting [1] was 15.4%. The median effective dose (ED50) under setting [2] was over 50 mg/kg.

What is called ED50 is the dose that gives a 50% effect, or the effect in half of the subjects.
